In patent publication US20250074892A1, “CARBONYL BRIDGED HETEROCYCLIC COMPOUND, AND COMPOSITION AND APPLICATION THEREOF” (BEIJING SCITECH-MQ PHARMACEUTICALS LIMITED, priority 2022, published 2025):
Read-outs that look alike come from different tables or passages of the source. One block for each molecule: values may come before it.

What was measured:
[1] = test system: HT29 cells; experiment: Inhibition of cell necrosis (CCK8 method), HT29 cells; format: cell-based, human; settings: Homo sapiens, HT-29, 16 h, HT29, Human TNF-α/AT-406/Z-VAD-FMK, 16 hours, CCK8
In short: (§1)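 HT29 (1.2×10^4/well) and L929 (2.0×10^4/well) cells were pretreated 30 min with compound, 9-point 4-fold series from 10 μM in duplicate. Necrosis was induced with human TNF-α 20 ng/mL, AT-406 […] and Z-VAD-FMK 20 μM for 16 h (HT29), or murine TNF-α 20 ng/mL and Z-VAD-FMK 25 μM for 4-8 h (L929). CCK8 viability; IC50 from dose-effect curve.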

[2] = test system: L929 cells; experiment: Inhibition of cell necrosis (CCK8 method), L929 cells; format: cell-based, mouse; settings: Mus musculus, L929, L929, Murine TNF-α/Z-VAD-FMK, 4-8 hours, CCK8
In short: as §1

[3] = Rat PK&BBB (pharmacokinetics and brain penetration); format: in vivo, SD rats; settings: for clearance: read-out: Cl—obs; for bioavailability: PO 30 mg/kg vs IV 3 mg/kg; for Kp at 2 h / concentration at 2 h / concentration at 0 h / concentration at 0.083 h / concentration at 0.25 h / concentration at 0.5 h / concentration at 1 h / concentration at 4 h / concentration at 7 h / concentration at 24 h: Sprague-Dawley; for Kp at 2 h: brain / whole blood, read-out: Brain/blood ratio
Description: (§2) In this assay, the pharmacokinetic characteristics and ability to penetrate the blood-brain barrier of the compounds of the present application were assayed after administration of some of the compounds of the present application to SD rats, CD-1 mice or beagle dogs by single oral administration and intravenous injection.
(§3) 1. Intravenous (IV) injection group: an appropriate amount of the assay compound was weighed, and completely dissolved in an appropriate volume of vehicle. The mixture was stirred, vortexed and/or sonicated. Once a solution was obtained, the vehicle was gradually added to a final volume to reach the target concentration. The solution was vortexed, and sonicated to obtain a homogeneous solution. The solution was filtered through a 0.22 m PVDF membrane.
as §3, with “2. Oral (PO)” for “1. Intravenous (IV) injection”, “solution.” for “solution. The solution was filtered through a 0.22 m PVDF membrane.”
(§4) Meanwhile, the IV group was not fasted and the PO group was fasted overnight (>12 hrs) and given food 2 hrs after drug administration. All animals had free access to water. The dosing regimen and pharmacokinetic sampling regimen are given in Table 10 and Table 11 below, respectively.
Rats were administered according to the above protocol, and blood and brain tissue samples were collected and processed at predetermined time points (collection and processing were performed according to conventional methods in the art).
(§5) The brain was weighed and homogenized by adding 4 times of ultrapure water. Six times volume of acetonitrile was added respectively to the whole blood samples and brain homogenate (20 times volume of acetonitrile was added to the whole blood sample of mouse PK). The mixture was vortexed for 1 min and then centrifuged at 4° C., 4500 rpm for 15 min. According to the instrument response, the supernatant was diluted with diluent and the sample was analyzed by LC/MS.
(§6) Pharmacokinetic parameters were calculated using WinNonlin software. The following pharmacokinetic parameters were calculated if appropriate plasma/whole blood drug concentration-time data were available: CL (clearance); Vd (apparent volume of distribution); T1/2 (elimination half-life time); Cmax (peak concentration); Tmax (time to peak); AUC (area under plasma drug concentration-time curve); MRT (mean retention time); F % (bioavailability).

[4] = Beagle PK (pharmacokinetics); format: in vivo, beagle dogs; settings: whole blood, Beagle dog
Description: as §2, §3
as §3, with “2. Oral (PO)” for “1. Intravenous (IV) injection”, “solution.” for “solution. The solution was filtered through a 0.22 m PVDF membrane.”
as §4, §5, §6

[5] = PO 30 mg/kg, 2 h after administration
[6] = rat, brain, po, 30 mg/kg, PO 30 mg/kg, 2 h after administration, read-out: Brain concentration
[7] = rat, whole blood, iv, 3 mg/kg, IV 3 mg/kg, read-out: Blood drug concentration
[8] = rat, whole blood, iv, 3 mg/kg, IV 3 mg/kg, 2 hr, read-out: Blood drug concentration
[9] = rat, whole blood, po, 30 mg/kg, PO 30 mg/kg, read-out: Blood drug concentration
[10] = rat, whole blood, po, 30 mg/kg, PO 30 mg/kg, 2 hr, read-out: Blood drug concentration
[11] = rat, whole blood, po, 30 mg/kg, PO 30 mg/kg, 24 hr, read-out: Blood drug concentration
[12] = rat, whole blood, po, 30 mg/kg, PO 30 mg/kg, whole blood, 2 h after administration, read-out: Blood drug concentration
[13] = IV 1 mg/kg, read-out: Blood drug concentration
[14] = PO 3 mg/kg, read-out: Blood drug concentration

- AUC(0-inf) ([3]; SD, whole blood, IV 3 mg/kg): 592 ± 57 ng·h/mL
- AUC(0-t) ([3]; SD, whole blood, IV 3 mg/kg): 588 ± 56 ng·h/mL
- Vd ([3]; SD, whole blood, IV 3 mg/kg): 7.84 ± 0.5 L/kg
- half-life ([3]; SD, whole blood, IV 3 mg/kg): 1.07 ± 0.08 h
- clearance ([3]; SD, whole blood, IV 3 mg/kg): 85 ± 8.4 mL/min/kg
- AUC(0-inf) ([3]; SD, whole blood, PO 30 mg/kg): 1970 ± 768 ng·h/mL
- AUC(0-t) ([3]; SD, whole blood, PO 30 mg/kg): 1900 ± 868 ng·h/mL
- Cmax ([3]; SD, whole blood, PO 30 mg/kg): 581 ± 228 ng/mL
- Tmax ([3]; SD, whole blood, PO 30 mg/kg): 1.17 ± 0.76 h
- half-life ([3]; SD, whole blood, PO 30 mg/kg): 2.84 ± 0.46 h
- bioavailability ([3]; SD, whole blood): 33.2 ± 13%
- Kp at 2 h [3, 5]: 1.13
- concentration at 2 h [3, 6]: 309 ng/g
- concentration at 0 h [3, 7]: 0 ng/mL
- concentration at 0.083 h [3, 7]: 865 ± 45 ng/mL
- concentration at 0.25 h [3, 7]: 496 ± 33 ng/mL
- concentration at 0.5 h [3, 7]: 295 ± 29 ng/mL
- concentration at 1 h [3, 7]: 119 ± 14 ng/mL
- concentration at 2 h [3, 8]: 61.9 ± 8.5 ng/mL
- concentration at 4 h [3, 7]: 13.2 ± 5 ng/mL
- concentration at 7 h [3, 7]: 2.37 ± 0.77 ng/mL
- concentration at 0 h [3, 9]: 0 ng/mL
- concentration at 0.25 h [3, 9]: 185 ± 86 ng/mL
- concentration at 0.5 h [3, 9]: 416 ± 92 ng/mL
- concentration at 1 h [3, 9]: 547 ± 248 ng/mL
- concentration at 2 h [3, 10]: 372 ± 258 ng/mL
- concentration at 4 h [3, 9]: 109 ± 99 ng/mL
- concentration at 7 h [3, 9]: 59.8 ± 34.9 ng/mL
- concentration at 24 h [3, 11]: 0.93 ng/mL
- concentration at 2 h [3, 12]: 274 ng/mL
Compound: O=C(C1CCN(c2cc(-c3cc(OCCCO)ccc3F)ccn2)CC1)N1N=CC[C@H]1c1cc(F)cc(F)c1 (racemic) [Example 40]
- IC50 [1]: ≤ 10 nM
- IC50 [2]: 10 to 50 nM

- concentration at 24 hr ([3]; SD, rat, whole blood, iv, 3 mg/kg, IV 3 mg/kg, 24 hr, read-out: Blood drug concentration): 19.9 ± 2.4 ng/mL
- AUC(0-inf) ([3]; SD, whole blood, IV 3 mg/kg): 4140 ± 234 ng·h/mL
- AUC(0-t) ([3]; SD, whole blood, IV 3 mg/kg): 3990 ± 225 ng·h/mL
- Vd ([3]; SD, whole blood, IV 3 mg/kg): 5.5 ± 0.38 L/kg
- half-life ([3]; SD, whole blood, IV 3 mg/kg): 5.25 ± 0.14 h
- clearance ([3]; SD, whole blood, IV 3 mg/kg): 12.1 ± 0.7 mL/min/kg
- AUC(0-inf) ([3]; SD, whole blood, PO 30 mg/kg): 26500 ± 3060 ng·h/mL
- AUC(0-t) ([3]; SD, whole blood, PO 30 mg/kg): 24200 ± 2750 ng·h/mL
- Cmax ([3]; SD, whole blood, PO 30 mg/kg): 1580 ± 205 ng/mL
- Tmax ([3]; SD, whole blood, PO 30 mg/kg): 6 ± 1.73 h
- half-life ([3]; SD, whole blood, PO 30 mg/kg): 6.33 ± 1.56 h
- bioavailability ([3]; SD, whole blood): 64 ± 7.4%
- Kp at 2 h [3, 5]: 0.915
- concentration at 2 h [3, 6]: 1970 ng/g
- concentration at 0 h [3, 7]: 0 ng/mL
- concentration at 0.083 h [3, 7]: 798 ± 302 ng/mL
- concentration at 0.25 h [3, 7]: 565 ± 166 ng/mL
- concentration at 0.5 h [3, 7]: 445 ± 70 ng/mL
- concentration at 1 h [3, 7]: 368 ± 53 ng/mL
- concentration at 2 h [3, 8]: 303 ± 39 ng/mL
- concentration at 4 h [3, 7]: 269 ± 25 ng/mL
- concentration at 7 h [3, 7]: 199 ± 23 ng/mL
- concentration at 0 h [3, 9]: 0 ng/mL
- concentration at 0.25 h [3, 9]: 266 ± 89 ng/mL
- concentration at 0.5 h [3, 9]: 654 ± 74 ng/mL
- concentration at 1 h [3, 9]: 1250 ± 67 ng/mL
- concentration at 2 h [3, 10]: 1300 ± 178 ng/mL
- concentration at 4 h [3, 9]: 1380 ± 387 ng/mL
- concentration at 7 h [3, 9]: 1550 ± 153 ng/mL
- concentration at 24 h [3, 11]: 237 ± 95 ng/mL
- concentration at 2 h [3, 12]: 2150 ng/mL
- AUC(0-inf) ([4]; IV 1 mg/kg): 3380 ± 342 ng·h/mL
- AUC(0-t) ([4]; IV 1 mg/kg): 2920 ± 268 ng·h/mL
- Vd ([4]; IV 1 mg/kg): 3.7 ± 1.05 L/kg
- half-life ([4]; IV 1 mg/kg): 8.72 ± 3 h
- concentration at 0 hr [4, 13]: 0 ng/mL
- concentration at 0.083 hr ([4]; IV 1 mg/kg, 0.083 hr, read-out: Blood drug concentration): 535 ± 62 ng/mL
- concentration at 0.25 hr [4, 13]: 451 ± 77 ng/mL
- concentration at 0.5 h [4, 13]: 390 ± 13 ng/mL
- concentration at 1 h [4, 13]: 253 ± 49 ng/mL
- concentration at 2 h [4, 13]: 236 ± 69 ng/mL
- concentration at 4 h [4, 13]: 176 ± 29 ng/mL
- concentration at 7 h [4, 13]: 133 ± 14 ng/mL
- concentration at 24 hr ([4]; IV 1 mg/kg, 24 hr, read-out: Blood drug concentration): 32.9 ± 13.5 ng/mL
- clearance ([4]; IV 1 mg/kg, read-out: Cl—obs): 4.97 ± 0.51 mL/min/kg
- AUC(0-inf) ([4]; PO 3 mg/kg): 18000 ± 939 ng·h/mL
- AUC(0-t) ([4]; PO 3 mg/kg): 11200 ± 2940 ng·h/mL
- Cmax ([4]; PO 3 mg/kg): 1510 ± 396 ng/mL
- Tmax ([4]; PO 3 mg/kg): 1.17 ± 0.76 h
- half-life ([4]; PO 3 mg/kg): 18.1 ± 5 h
- bioavailability ([4]; PO 3 mg/kg vs IV 1 mg/kg): 127 ± 28%
- concentration at 0 hr [4, 14]: 0 ng/mL
- concentration at 0.25 hr [4, 14]: 645 ± 362 ng/mL
- concentration at 0.5 h [4, 14]: 1320 ± 406 ng/mL
- concentration at 1 h [4, 14]: 1170 ± 696 ng/mL
- concentration at 2 h [4, 14]: 1320 ± 320 ng/mL
- concentration at 4 h [4, 14]: 560 ± 231 ng/mL
- concentration at 7 h [4, 14]: 406 ± 145 ng/mL
- concentration at 24 h ([4]; PO 3 mg/kg, 24 hr, read-out: Blood drug concentration): 260 ± 19 ng/mL
Compound: CC(C)(O)COc1ccc(F)c(-c2ccnc(N3CCC(C(=O)N4N=CC[C@H]4c4cc(F)cc(F)c4)CC3)c2)c1 (racemic) [Example 42]
- IC50 [1]: ≤ 10 nM
- IC50 [2]: ≤ 10 nM
